Test results taken from patent publication US9056914B2, “Anticancer derivatives, preparation thereof and therapeutic use thereof” (priority 2010, dated 2015).

Each molecule was assayed on MDA-MB-231 cells (assay: Inhibition of proliferation of MDA-MB-231 cells by tomaymycin dimers (14C-thymidine incorporation)). Settings: Homo sapiens, MDA-MB231, 3 days culture, 14C-thymidine incorporation at 96 h, read-out: Inhibition of proliferation (14C-thymidine pulse at 96 h) IC50 MDA-MB231.
Type: cell-based
Procedure: (§1) Evaluation of the Inhibition of Proliferation of the Cell Lines MDA-MB-231, MDA-A1 and HCT116 with the Compounds of Formula (IA) with RCG1=—SZa (Za=SMe) or RCG1=—C(═O)ZbRb (ZbRb=OMe)
(§2) MDA-MB-231, MDA-A1 or HCT116 cells in their exponential growth phase were trypsinized and resuspended in their respective culture medium (DMEM/F12 Gibco #21331, 10% FCS Gibco #10500-056, […] Glutamine Gibco #25030 for the MDA cells; DMEM Gibco #11960, 10% FCS Gibco #10500-056, 2 mM Glutamine Gibco #25030 for the HCT116 cells). The cell suspension was seeded in Cytostar 96-well culture plates (GE Healthcare Europe, #RPNQ0163) in the complete culture medium containing serum to a density of 5000 cells/well (MDA-MB-231, MDA-A1, HCT116). After incubation for 4 hours, successive dilutions of the tomaymycin dimers were added to the wells in triplicate for each concentration. The cells were cultured for 3 days at 37° C. under an atmosphere of 5% CO2 in the presence of the cytotoxic agents. On the fourth day, 10 μl of a solution of ^14C-thymidine (0.1 μCi/well, Perkin Elmer #NEC56825000) were added to each well. The incorporation of ^14C-thymidine was measured 96 hours after the start of the experiment with a Microbeta radioactivity counter (Perkin Elmer). The data are expressed in the form of a percentage of survival by determining the ratio between the Count obtained with the cells treated with the cytotoxic agents and that obtained with the cells of the control wells (treated with the culture medium alone).

Compared with `C/C=C1\C[C@H]2C=Nc3cc(OCc4cc(OCCN(CCOCCOCCOC)CC(C)(C)SSC)cc(COc5cc6c(cc5OC)C(=O)N5C/C(=C/C)C[C@H]5C=N6)n4)c(OC)cc3C(=O)N2C1`, `C/C=C1\C[C@H]2C=Nc3cc(OCc4cc(OCCN(CCOCCOCCN5CCOCC5)CC(C)(C)SSC)cc(COc5cc6c(cc5OC)C(=O)N5C/C(=C/C)C[C@H]5C=N6)n4)c(OC)cc3C(=O)N2C1` is 1.6-fold lower in IC50: 0.128 nM for the first, 0.081 nM for the second.

First: C/C=C1\C[C@H]2C=Nc3cc(OCc4cc(OCCN(CCCC(=O)OCC)CCOCCOCCOC)cc(COc5cc6c(cc5OC)C(=O)N5C/C(=C/C)C[C@H]5C=N6)n4)c(OC)cc3C(=O)N2C1
Second: C/C=C1\C[C@H]2C=Nc3cc(OCc4cc(OCCN(CCOCCOCCOC)CCC(=O)OC)cc(COc5cc6c(cc5OC)C(=O)N5C/C(=C/C)C[C@H]5C=N6)n4)c(OC)cc3C(=O)N2C1
The IC50 of the first is 9.4-fold lower: 0.041 nM for the first, 0.384 nM for the second. The first is the more potent here.

`C/C=C1\C[C@H]2C=Nc3cc(OCc4cc(OCCN(CCCC(=O)OCC)C(=O)CCOCCOCCOCCOC)cc(COc5cc6c(cc5OC)C(=O)N5C/C(=C/C)C[C@H]5C=N6)n4)c(OC)cc3C(=O)N2C1` gave an IC50 of 5.67 nM.

These molecules were tested on MDA-A1 cells (assay: Inhibition of proliferation of MDA-A1 cells by tomaymycin dimers (14C-thymidine incorporation)). Settings: MDA-A1, 3 days culture, 14C-thymidine incorporation at 96 h; read-out: Inhibition of proliferation (14C-thymidine pulse at 96 h) IC50 MDA-A1.
Type: cell-based
Procedure: as §1, §2

Going from `C/C=C1\C[C@H]2C=Nc3cc(OCc4cc(OCCN(CCOCCOCCOC)CC(C)(C)SSC)cc(COc5cc6c(cc5OC)C(=O)N5C/C(=C/C)C[C@H]5C=N6)n4)c(OC)cc3C(=O)N2C1` to `C/C=C1\C[C@H]2C=Nc3cc(OCc4cc(OCCN(CCOCCOCCN5CCOCC5)CC(C)(C)SSC)cc(COc5cc6c(cc5OC)C(=O)N5C/C(=C/C)C[C@H]5C=N6)n4)c(OC)cc3C(=O)N2C1`, the IC50 rises from 16.3 nM to 26.5 nM (1.6-fold). The first is the more potent here.

Compared with `C/C=C1\C[C@H]2C=Nc3cc(OCc4cc(OCCN(CCCC(=O)OCC)CCOCCOCCOC)cc(COc5cc6c(cc5OC)C(=O)N5C/C(=C/C)C[C@H]5C=N6)n4)c(OC)cc3C(=O)N2C1`, `C/C=C1\C[C@H]2C=Nc3cc(OCc4cc(OCCN(CCOCCOCCOC)CCC(=O)OC)cc(COc5cc6c(cc5OC)C(=O)N5C/C(=C/C)C[C@H]5C=N6)n4)c(OC)cc3C(=O)N2C1` is 5.1-fold higher in IC50: 3.46 nM for the first, 17.8 nM for the second.

Work on `C/C=C1\C[C@H]2C=Nc3cc(OCc4cc(OCCN(CCCC(=O)OCC)C(=O)CCOCCOCCOCCOC)cc(COc5cc6c(cc5OC)C(=O)N5C/C(=C/C)C[C@H]5C=N6)n4)c(OC)cc3C(=O)N2C1` yielded an IC50 greater than 50 nM.

Each molecule was assayed on HCT116 cells (assay: Inhibition of proliferation of HCT116 cells by tomaymycin dimers (14C-thymidine incorporation)). Settings: Homo sapiens, HCT-116; HCT116, 3 days culture, 14C-thymidine incorporation at 96 h; read-out: Inhibition of proliferation (14C-thymidine pulse at 96 h) IC50 HCT116.
Type: cell-based
Procedure: as §1, §2

`C/C=C1\C[C@H]2C=Nc3cc(OCc4cc(OCCN(CCOCCOCCOC)CC(C)(C)SSC)cc(COc5cc6c(cc5OC)C(=O)N5C/C(=C/C)C[C@H]5C=N6)n4)c(OC)cc3C(=O)N2C1` and `C/C=C1\C[C@H]2C=Nc3cc(OCc4cc(OCCN(CCOCCOCCN5CCOCC5)CC(C)(C)SSC)cc(COc5cc6c(cc5OC)C(=O)N5C/C(=C/C)C[C@H]5C=N6)n4)c(OC)cc3C(=O)N2C1` are within 1.5-fold of each other in IC50: 0.061 nM for the first, 0.048 nM for the second.

Going from `C/C=C1\C[C@H]2C=Nc3cc(OCc4cc(OCCN(CCCC(=O)OCC)CCOCCOCCOC)cc(COc5cc6c(cc5OC)C(=O)N5C/C(=C/C)C[C@H]5C=N6)n4)c(OC)cc3C(=O)N2C1` to `C/C=C1\C[C@H]2C=Nc3cc(OCc4cc(OCCN(CCOCCOCCOC)CCC(=O)OC)cc(COc5cc6c(cc5OC)C(=O)N5C/C(=C/C)C[C@H]5C=N6)n4)c(OC)cc3C(=O)N2C1`, the IC50 rises from 0.018 nM to 0.235 nM (13-fold). The first is the more potent here.

Molecule `C/C=C1\C[C@H]2C=Nc3cc(OCc4cc(OCCN(CCCC(=O)OCC)C(=O)CCOCCOCCOCCOC)cc(COc5cc6c(cc5OC)C(=O)N5C/C(=C/C)C[C@H]5C=N6)n4)c(OC)cc3C(=O)N2C1` has an IC50 of 4.98 nM.
